Source: patent US8367829B2, “Bi-functional pyrazolopyridine compounds” (Gilead Sciences, Inc., priority 2010, dated 2013)

Tests used:
Human recombinant PDE4B2 = target: T1, Human recombinant PDE4B2 (Homo sapiens, UniProt Q07343); assay: Inhibition of PDE4B2 enzyme activity (PDE Glo Assay); type: biochemical; settings: human recombinant PDE4B2, 50 nM cAMP; read-out: PDE4 IC50
T1 construct: purchased BPS Bioscience
Description: Inhibition of PDE4B4 Enzyme Activity
The inhibitory activity of test compounds were determined using the PDE Glo Assay (Promega, V1361). The PDE-Glo Reaction Buffer was prepared (1 mL 5× buffer+4 mL water) and 150 nM solution of test compound dissolved in the Reaction Buffer, followed by 1:3 serial dilutions into Reaction Buffer. […] Human recombinant PDE4B2 (BPS Bioscience) was added to test compound in Reaction Buffer at a concentration of 0.12 nM per reaction. The enzyme and test compound were pre-incubated together at rt for 10 min. 50 nM of the enzyme substrate cAMP was then added to initiate the enzyme reaction, with the reaction terminated after one hour. Termination Buffer (1 mL 5× termination buffer+3.9 mL water+100 μL of 100 mM IBMX (ICN Chemicals, in DMSO)), was added to each reaction well to terminate the reaction. Detection Buffer (1 mL 5×PDE-Glo Detection buffer+3.96 mL water+40 μL PKA (supplied in kit)) was added to the cAMP-enzyme-test compound mix and this secondary reaction proceeded for 20 minutes at rt. An equal volume of Kinase Glo Reagent was then added to the reaction mixture and after 10 min luminescence was measured using a luminometer (EnVision, 0.1 sec read for luminescence). Luminescence values were […] related to levels of cAMP in the reaction mixture. Data were plotted as relative light units (RLU) versus test compound concentration and the IC50 determined using GraphPad Prism 5.0, using a nonlinear curve fit in a single-site binding model.
IC50 determinations for the compounds presented above are seen in the first column of Table 1 (PDE4 IC50).

[1] = target: T2, human recombinant beta-2 adrenoreceptors (Homo sapiens, UniProt P07550); assay: Beta-2 adrenoceptor binding assay, displacement of [3H](−)CGP-12177; settings: CHO cells expressing human beta-2 adrenoreceptors, [3H](−)CGP-12177 0.3 nM, 120 min
T2 construct: expressed in transfected cells; host or cells: CHO cells
T2 sequence (P07550 whole entry): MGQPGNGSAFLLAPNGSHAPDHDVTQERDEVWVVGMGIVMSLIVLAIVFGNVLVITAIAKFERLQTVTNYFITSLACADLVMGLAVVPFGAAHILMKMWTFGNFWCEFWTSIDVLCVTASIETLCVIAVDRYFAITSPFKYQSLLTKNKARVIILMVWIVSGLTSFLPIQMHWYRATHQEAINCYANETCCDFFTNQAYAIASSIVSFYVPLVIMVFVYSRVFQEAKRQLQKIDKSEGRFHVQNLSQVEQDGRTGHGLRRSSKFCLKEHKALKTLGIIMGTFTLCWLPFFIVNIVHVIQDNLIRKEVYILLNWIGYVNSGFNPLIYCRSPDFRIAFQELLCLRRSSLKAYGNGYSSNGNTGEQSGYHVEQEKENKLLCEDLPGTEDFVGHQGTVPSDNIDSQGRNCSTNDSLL
Description: Beta-2 Adrenoceptor Binding Assay
Test compounds were incubated for 120 min with Chinese hamster oocyte (CHO) cells expressing the human recombinant beta-2 adrenoreceptors. Binding of test compounds to the beta-2 adrenoreceptors was determined by measuring the displacement of the radiolabeled ligand [^3H](−)CGP-12177 (0.3 nM) from the receptor measured by a scintillation counting. Concentration response curves were generated for test compounds and the IC50 (molar concentration of the compound which produced 50% inhibition for the maximal response for that compound) was determined. These assays were performed using a protocol based on the original description of the assay by Joseph et al., (2004) Naun.-Sch. Arch. Pharm.; 369:525-532.
IC50 determinations for the compounds presented above are seen in the second column of Table 1 (Beta 2 IC50).

[2] = target: T2, human recombinant beta-2 adrenoreceptors; assay: Functional agonism of human recombinant beta-2 adrenoreceptors expressed in CHO cells (cAMP, HTRF); type: cell-based; settings: cAMP elevation, 30 min
Description: Functional Agonism of Human Recombinant Beta-2 Adrenoreceptors Expressed in Chinese Hamster Oocytes (CHO)
Test compounds were incubated for 30 min with CHO cells expressing the human recombinant beta-2 adrenoreceptors. Agonism of the receptor was measured by the elevation of intracellular cyclic-AMP over control levels detected using a homogeneous time resolved fluorescence (HTRF) format. Compounds were determined to be “full” or “partial” agonists based on the maximum level of cAMP accumulated compared to the control compound isoproterenol which is a full agonist in this assay system. Concentration response curves were generated for test compounds and the EC50 (molar concentration of the agonist which produced 50% of the maximal response for that compound) was determined. These assays were performed using a protocol based on the original description of the assay by Baker, J. G. (2005) Brit. J. Pharmacol.; 144:317-322.
EC50 determinations for the compounds presented above are seen in the third column of Table 1 (Beta 2 EC50).

[3] = tested on: LPS-induced TNF-α release from human peripheral blood mononuclear cells (PBMC); assay: Inhibition of LPS-induced TNF-α release from human PBMC; type: cell-based; settings: LPS 0.4 ng/mL, 6 h, presence or absence of ICI-118551 not given
Description: Inhibition of Lipopolysaccharide (LPS)-Induced Tumour Necrosis Factor Alpha (TNF-α) Release from Human Peripheral Blood Mononuclear Cells (PBMC)
Human whole blood was drawn from donors and cell purification initiated within two hours. Peripheral blood mononuclear cells (PBMC) were purified using a standard Ficoll gradient purification technique and aliquoted at a concentration of 100,000 cells/well in 96 well plates. Beta-2 adrenoreceptor agonists are also anti-inflammatory for some immune cells expressing the receptor and in this assay they can inhibit tumor necrosis factor-alpha (TNF-α) production. Therefore PBMC were pre-incubated for 30 min in the presence of the beta-2 adrenoreceptor antagonist ICI-118551 (3-(isopropylamino)-1-[(7-methyl-4-indanyl)oxy]butan-2-ol) (10 μM) to determine the PDE4 directed activity of test compounds, and in the absence of ICI-118551 for the combined PDE4 and beta-2 receptor directed activity. Test compounds were dissolved in DMSO and diluted in buffer (final DMSO concentration of 0.1% v/v) and were then added to the cell suspensions and pre-incubated for a further 1 h at 37° C. LPS solution was then added (0.4 ng/mL) and the cells incubated for a further 6 h. At the end of the incubation period the cell supernatants were collected and TNF-α was measured using a Procarta Cytokine Assay Kit (Affymetrix, Santa Clara, Calif.) according to the manufacturers' instructions. Data were analyzed using MiraiBio Masterplex QT v4.0 software (MasterPlex Version 1.0.1.18 Copyright 2008, Hitachi Software Engineering Co., Ltd) and used to extrapolate Mean Fluorescence Intensity (MFI) into concentrations of TNF-α and mean values from replicate wells were determined. Inhibition curves were plotted using a nonlinear curve fit employing a single-site binding model to determine the IC50 value for each test compound in the presence or absence of ICI-118551 using GraphPad Prism 5 for Windows, version 5.02 (GraphPad Software, San Diego Calif.).
EC50 determinations for the compounds presented above are seen in the fourth column of Table 1 (PBMC TNF EC50).

T1 sequence (Q07343 1-564 isoform Q07343-2): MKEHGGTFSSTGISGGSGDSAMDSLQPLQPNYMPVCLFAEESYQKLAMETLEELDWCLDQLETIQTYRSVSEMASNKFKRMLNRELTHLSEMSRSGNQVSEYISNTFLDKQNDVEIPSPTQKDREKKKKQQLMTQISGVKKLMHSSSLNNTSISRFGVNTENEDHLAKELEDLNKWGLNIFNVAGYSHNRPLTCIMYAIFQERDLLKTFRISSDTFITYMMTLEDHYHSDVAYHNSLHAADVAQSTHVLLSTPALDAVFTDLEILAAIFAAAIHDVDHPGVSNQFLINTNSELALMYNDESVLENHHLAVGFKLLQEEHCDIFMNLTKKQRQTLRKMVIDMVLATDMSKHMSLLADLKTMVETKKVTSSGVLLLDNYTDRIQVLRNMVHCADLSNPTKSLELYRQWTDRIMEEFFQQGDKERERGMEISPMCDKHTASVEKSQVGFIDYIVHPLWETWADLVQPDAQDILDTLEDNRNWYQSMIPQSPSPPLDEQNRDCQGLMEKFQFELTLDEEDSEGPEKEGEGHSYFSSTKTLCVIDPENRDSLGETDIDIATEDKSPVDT

CCc1nc2c(cnn2CC)c(NC2CCOCC2)c1CNC(=O)c1ccc(CCCCCNC[C@H](O)c2ccc(O)c3[nH]c(=O)ccc23)cc1 [Example 9, (R)—N-[[1,6-diethyl-4-[(tetrahydro-2H-pyran-4-yl)amino]-1H-pyrazolo[3,4-b]pyridin-5-yl]methyl]-4-[5-[[2-hydroxy-2-(8-hydroxy-2-oxo-1,2-dihydroquinolin-5-yl)ethyl]amino]pentyl]benzamide]
< 100 nM: IC50 (Human recombinant PDE4B2) | IC50 [1] | EC50 [2] | EC50 [3]

CCc1nc2c(cnn2CC)c(NC2CCOCC2)c1CNC(=O)c1cccc(CC(C)(C)NC[C@H](O)c2ccc(O)c3[nH]c(=O)ccc23)c1 [Example 4, (R)—N-[[1,6-Diethyl-4-[(tetrahydro-2H-pyran-4-yl)amino]-1H-pyrazolo[3,4-b]pyridin-5-yl]methyl]-3-[2-[[2-hydroxy-2-(8-hydroxy-2-oxo-1,2-dihydroquinolin-5-yl)ethyl]-amino]-2-methylpropyl]benzamide]
< 100 nM: IC50 (Human recombinant PDE4B2) | IC50 [1] | EC50 [2] | EC50 [3]
